Test results taken from ChEMBL document CHEMBL4765332, “A multi-scale systems pharmacology approach uncovers the anti-cancer molecular mechanism of Ixabepilone” (Eur J Med Chem, 2020).
Activity calls are given as the source filed them. No cut-off for these calls is given here.

Experiments:
HepG2 [1] = test: Cytotoxicity against human HepG2 cells at 0.1 to 1.6 uM measured after 48 hrs in presence of 20 uM autophagy inhibitor, chloroquine by CCK8 assay; assay type: functional, cell-based; settings: dose 0.1-1.6 µM
MDA-MB-231 [2] = test: Cytotoxicity against human MDA-MB-231 cells transfected with non-targeting siRNA at 0.1 to 1.6 uM measured after 48 hrs by CCK8 assay; assay type: functional, cell-based; settings: dose 0.1-1.6 µM
[3] = target: T1, Apoptosis regulator Bcl-2 (Homo sapiens, UniProt P10415); test: Upregulation of Bcl-2 phosphorylation at Ser70 residue in human MDA-MB-231 cells at 0.05 to 0.4 microM incubated for 48 hrs by western blot analysis; assay type: cell-based; settings: dose 0.05-0.4 µM
HepG2 [4] = test: Induction of autophagy in human HepG2 cells assessed as increase in LC3-II expression at 0.4 to 6.4 uM measured after 48 hrs by western blot analysis; assay type: functional, cell-based; settings: dose 0.4-6.4 µM
[5] = target: T1, Apoptosis regulator Bcl-2; test: Upregulation of Bcl-2 phosphorylation at Ser70 residue in human MCF7 cells at 0.05 to 0.4 microM incubated for 48 hrs by western blot analysis; assay type: cell-based; settings: dose 0.05-0.4 µM
BT-549 [6] = test: Induction of autophagy in human BT-549 cells transfected with GFP-LC3 assessed as increase in GFP-LC3 puncta formation after 12 hrs by fluorescence microscopic analysis; assay type: functional, cell-based
MCF7 [7] = test: Induction of autophagy in human MCF-7 cells assessed as increase in LC3-II level measured after 48 hrs by Western blot analysis; assay type: functional, cell-based; settings: dose 0.05-0.4 µM
MCF7 [8] = test: Induction of autophagy in human MCF7 cells assessed as increase in LC3-II level at 0.1 uM by Western blot analysis; assay type: functional, cell-based; settings: time 12-48 hrs, TDE = time-dependent effect
BT-549 [9] = test: Induction of apoptosis in human BT-549 cells transfected with Beclin1 siRNA assessed as increase in cleaved caspase-3 level measured after 48 hrs by western blot analysis; assay type: functional, cell-based
Mus musculus = test: Downregulation of Ki67 expression in tumor tissue of BALB/c mouse xenografted with human MDA-MB-231 cells at 3 mg/kg, ip administered with compound every other day and with 10 mg/kg, ip CQ every day by immunohistochemical staining; assay type: functional, organism-based
MDA-MB-231 [10] = test: Effect on Beclin1 expression in human MDA-MB-231 cells at 0.2 uM measured after 48 hrs by western blot analysis; assay type: functional, cell-based
U-251 [11] = test: Induction of autophagy in human U251 cells assessed as increase in LC3-II expression at 0.4 uM measured after 12 to 48 hrs by western blot analysis; assay type: functional, cell-based; settings: time 12-48 hrs
[12] = target: T1, Apoptosis regulator Bcl-2; test: Induction of Bcl-2 phosphorylation-mediated protein degradation in human MDA-MB-231 cells assessed as disruption of Bcl2/Beclin1 interaction at 0.2 uM measured after 48 hrs by co-immunoprecipitation analysis; assay type: cell-based
[13] = target: T1, Apoptosis regulator Bcl-2; test: Upregulation of Bcl-2 phosphorylation at Ser70 residue in human BT549 cells at 0.1 microM incubated for 12 to 36 hrs by western blot analysis; assay type: cell-based; settings: BT-549, time 12-36 hrs
MDA-MB-231 [14] = test: Induction of autophagy in human MDA-MB-231 cells assessed increase in LC3-II level at 0.1 to 0.2 uM preincubated with 20 uM autophagosome-lysosome fusion inhibitor, chloroquine for 1 hr followed by incubation with compound for 48 hrs by western blot analysis; assay type: functional, cell-based; settings: dose 0.1-0.2 µM
MDA-MB-231 [15] = test: Antitumor activity against human MDA-MB-231 cells xenografted in BALB/c mouse assessed as tumor growth inhibition at 3 mg/kg, ip administered with compound every other day and with 10 mg/kg, ip CQ every day and measured every 3 days by vernier caliper analysis; assay type: functional, organism-based
BT-549 [16] = test: Induction of apoptosis in human BT-549 cells assessed as necrotic cells incubated for 48 hrs in presence of 20 uM autophagy inhibitor, CQ by AnnexinV-FITC and propidium iodide staining based flow cytometry analysis(reference value: 0.86%); assay type: functional
[17] = target: T1, Apoptosis regulator Bcl-2; test: Induction of Bcl-2 phosphorylation-mediated protein degradation in human U251 cells assessed as decrease in Bcl-2 expression at 0.4 uM measured after 12 to 48 hrs by western blot analysis; assay type: cell-based; settings: U-251, time 12-48 hrs
MDA-MB-231 [18] = test: Induction of apoptosis in human MDA-MB-231 cells assessed as increase in cleaved PARP level pretreated with 20 uM autophagy inhibitor, CQ for 1 hr followed by incubation with drug for 48 hrs by western blot analysis; assay type: functional, cell-based
BT-549 [19] = test: Cytotoxicity against human BT-549 cells at 0.1 to 1.6 uM measured after 48 hrs in presence of 20 uM autophagy inhibitor, chloroquine by CCK8 assay; assay type: functional, cell-based; settings: dose 0.1-1.6 µM
[20] = target: T1, Apoptosis regulator Bcl-2; test: Induction of Bcl-2 phosphorylation-mediated protein degradation in human BT549 cells assessed as decrease in Bcl-2 expression at 0.1 uM by western blot analysis; assay type: cell-based; settings: BT-549, time 12-48 hrs, TDE = time-dependent effect
BT-549 [21] = test: Induction of apoptosis in human BT-549 cells assessed as early apoptotic cells incubated for 48 hrs by AnnexinV-FITC and propidium iodide staining based flow cytometry analysis(reference value: 0.609%); assay type: functional
U-251 [22] = test: Induction of autophagy in human U251 cells assessed as increase in LC3-II expression at 0.4 to 6.4 uM measured after 48 hrs by western blot analysis; assay type: functional, cell-based; settings: dose 0.4-6.4 µM
BT-549 [23] = test: Induction of autophagy in human BT-549 cells assessed as increase in LC3-II level measured after 48 hrs by Western blot analysis; assay type: functional, cell-based; settings: dose 0.05-0.4 µM
BT-549 [24] = test: Induction of autophagy in human BT-549 cells assessed as increase in LC3-II level at 0.1 uM by Western blot analysis; assay type: functional, cell-based; settings: time 12-48 hrs, TDE = time-dependent effect
[25] = target: T1, Apoptosis regulator Bcl-2; test: Induction of Bcl-2 phosphorylation-mediated protein degradation in human MDA-MB-231 cells assessed as decrease in Bcl-2 expression measured after 48 hrs by western blot analysis; assay type: cell-based; settings: dose 0.05-0.4 µM
BT-549 [26] = test: Induction of apoptosis in human BT-549 cells assessed as early apoptotic cells incubated for 48 hrs in presence of 20 uM autophagy inhibitor, CQ by AnnexinV-FITC and propidium iodide staining based flow cytometry analysis(reference value: 1.94%); assay type: functional
[27] = target: T1, Apoptosis regulator Bcl-2; test: Upregulation of Bcl-2 phosphorylation at Ser70 residue in human BT549 cells at 0.05 to 0.4 microM incubated for 48 hrs by western blot analysis; assay type: cell-based; settings: BT-549, dose 0.05-0.4 µM
[28] = target: T1, Apoptosis regulator Bcl-2; test: Induction of Bcl-2 phosphorylation-mediated protein degradation in human MCF7 cells assessed as decrease in Bcl-2 expression measured after 48 hrs by western blot analysis; assay type: cell-based; settings: dose 0.05-0.4 µM
BT-549 [29] = test: Induction of apoptosis in human BT-549 cells assessed as increase in cleaved PARP level pretreated with 20 uM autophagy inhibitor, CQ for 1 hr followed by incubation with drug for 48 hrs by western blot analysis; assay type: functional, cell-based
[30] = target: T1, Apoptosis regulator Bcl-2; test: Induction of Bcl-2 phosphorylation-mediated protein degradation in human BT549 cells assessed as decrease in Bcl-2 expression at 0.1 to 0.2 uM pretreated with proteasome inhibitor, MG132 for 2 hrs followed by incubation with compound for 48 hrs by western blot analysis; assay type: cell-based; settings: BT-549, dose 0.1-0.2 µM

T1 sequence (P10415 whole entry): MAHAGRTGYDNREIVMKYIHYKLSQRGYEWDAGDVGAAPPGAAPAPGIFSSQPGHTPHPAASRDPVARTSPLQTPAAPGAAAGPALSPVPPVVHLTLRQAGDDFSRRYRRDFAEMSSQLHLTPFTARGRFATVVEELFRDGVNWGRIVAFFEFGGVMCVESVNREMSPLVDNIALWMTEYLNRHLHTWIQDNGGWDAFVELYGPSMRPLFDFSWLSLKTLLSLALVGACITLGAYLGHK

C/C(=C\c1csc(C)n1)[C@@H]1C[C@@H]2O[C@]2(C)CCC[C@H](C)[C@H](O)[C@@H](C)C(=O)C(C)(C)[C@@H](O)CC(=O)N1 [IXABEPILONE]
Activity (HepG2 [1]): Active
Activity (MDA-MB-231 [2]): Active
Activity [3]: Active
Activity (HepG2 [4]): Active
Activity [5]: Active
Activity (BT-549 [6]): Active
Activity (MCF7 [7]): Dose-dependent effect
Activity (MCF7 [8]): Tde
Activity (BT-549 [9]): Active
inhibition (Mus musculus): Active
Activity (MDA-MB-231 [10]): inactive
Activity (U-251 [11]): Active
Activity [12]: Active
Activity [13]: Active
Activity (MDA-MB-231 [14]): Active
Activity (MDA-MB-231 [15]): Active
Activity (BT-549 [16]): 3.53%
Activity [17]: Active
Activity (MDA-MB-231 [18]): Active
Activity (BT-549 [19]): Active
Activity [20]: Tde
Activity (BT-549 [21]): 2.17%
Activity (U-251 [22]): Active
Activity (BT-549 [23]): Dose-dependent effect
Activity (BT-549 [24]): Tde
Activity [25]: Dose-dependent effect
Activity (BT-549 [26]): 4.2%
Activity [27]: Active
Activity [28]: Dose-dependent effect
Activity (BT-549 [29]): Active
Activity [30]: inactive
